In patent publication US12522594B2, “2-heteroaryl-3-oxo-2,3-dihydropyridazine-4-carboxamides for the treatment of cancer” (Deutsches Krebsforschungszentrum, priority 2017, dated 2026):

Columns and labels:
Assay type in all cases: cell-based
AHR [1] = molecular target: T1, AHR (Homo sapiens, UniProt P35869); experiment: In vitro assay 1: antagonism in human cell line (transactivation assay, U87 cells prestimulated with kynurenic acid, DRE firefly luciferase reporter); set-up: host or cells: U87 glioblastoma cells, stably transfected with DRE firefly luciferase and renilla reporter constructs; details: 150 uM kynurenic acid, 20 hours, read-out: Assay 1: AHR-luc Hum Antagonism IC50
T1 sequence (P35869 11-848): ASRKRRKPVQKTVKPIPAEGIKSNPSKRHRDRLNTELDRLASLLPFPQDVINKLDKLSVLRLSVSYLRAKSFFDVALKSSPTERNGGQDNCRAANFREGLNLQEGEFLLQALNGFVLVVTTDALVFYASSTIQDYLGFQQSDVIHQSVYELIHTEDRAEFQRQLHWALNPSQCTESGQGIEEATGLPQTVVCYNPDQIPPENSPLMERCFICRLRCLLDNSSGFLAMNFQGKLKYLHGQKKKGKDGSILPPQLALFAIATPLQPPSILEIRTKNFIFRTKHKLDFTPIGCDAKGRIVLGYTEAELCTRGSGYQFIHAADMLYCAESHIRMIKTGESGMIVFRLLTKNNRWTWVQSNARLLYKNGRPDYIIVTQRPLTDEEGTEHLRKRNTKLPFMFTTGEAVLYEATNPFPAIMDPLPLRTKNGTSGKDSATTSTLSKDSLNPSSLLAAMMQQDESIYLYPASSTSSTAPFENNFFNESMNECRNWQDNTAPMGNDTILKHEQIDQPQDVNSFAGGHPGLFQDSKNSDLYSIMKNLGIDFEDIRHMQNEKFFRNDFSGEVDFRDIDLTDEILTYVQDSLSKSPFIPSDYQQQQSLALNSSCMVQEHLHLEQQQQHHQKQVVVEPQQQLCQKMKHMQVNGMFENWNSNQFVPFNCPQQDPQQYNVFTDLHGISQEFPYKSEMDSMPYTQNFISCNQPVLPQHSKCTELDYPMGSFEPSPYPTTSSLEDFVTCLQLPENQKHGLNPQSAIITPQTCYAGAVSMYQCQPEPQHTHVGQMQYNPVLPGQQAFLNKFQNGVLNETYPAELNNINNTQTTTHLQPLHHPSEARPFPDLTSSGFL
How it was run: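 Antagonism measured after kynurenic acid prestimulation in U87 cells that express AHR endogenously and stably harbor a firefly luciferase gene under DRE control plus a constitutive renilla construct. Positive and negative controls served for normalization.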

AHR [2] = molecular target: T1, AHR; experiment: In vitro assay 3: AHR-regulated CYP1A1 expression in human cell line (U937, qPCR, KA stimulation); details: U937 cells, 200 uM KA, 6 hours, CYP1A1 expression by qPCR; read-out: Assay 3: Hum CYP1A1 Antagonism IC50
How it was run: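 U937 human monocytic cells were stimulated with 200 uM KA for 6 h, with or without compound at eight concentrations from 1 nM to 3 uM, in duplicate. CYP1A1 mRNA was quantified by Taqman qPCR as fold expression normalised to HPRT. Unstimulated cells served as negative control.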

AHR [3] = molecular target: T1, AHR; experiment: In vitro assay 2: agonism in human cell line (transactivation assay, U87 cells, DRE firefly luciferase reporter); set-up: host or cells: U87 glioblastoma cells, stably transfected with DRE firefly luciferase and renilla reporter constructs; details: no kynurenic acid, 20 hours, read-out: Assay 2: AHR-luc Hum Agonism IC50
How it was run: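 Agonist readout: DRE firefly luciferase, with constitutive renilla reporter, in stably transfected U87 cells expressing AHR endogenously. Normalization used positive control (300 uM kynurenic acid) and negative control.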

| SMILES | IC50 (AHR [1]) | IC50 (AHR [2]) | IC50 (AHR [3]) |
| --- | --- | --- | --- |
| O=C(N[C@H]1COC[C@H]1O)c1cc(-c2ccc(OC(F)(F)F)cc2)nn(-c2cccnc2)c1=O (single isomer, unassigned; enantiomer 1) [Example 158, N-[(cis)-4-Hydroxytetrahydrofuran-3-yl]-3-oxo-2-(pyridin-3-yl)-6-[4-(trifluoromethoxy)phenyl]-2,3-dihydropyridazine-4-carboxamide, Enantiomer 1] | 21.8 nM | 25.2 nM | > 20000 nM |
| Cn1cc(-n2nc(-c3ccc(Cl)cc3)cc(C(=O)N[C@@H]3CCC[C@]3(C)O)c2=O)cn1 (relative stereo) [Example 317, 6-(4-Chlorophenyl)-N-[(cis)-2-hydroxy-2-methylcyclopentyl]-2-(1-methyl-1H-pyrazol-4-yl)-3-oxo-2,3-dihydropyridazine-4-carboxamide] | 30.3 nM | 37.3 nM | > 20000 nM |
| Cn1cc(-n2nc(-c3ccc(C(F)(F)F)cc3)cc(C(=O)N[C@H](CO)C3CC3)c2=O)cn1 [Example 238, N-[(1S)-1-Cyclopropyl-2-hydroxyethyl]-2-(1-methyl-1H-pyrazol-4-yl)-3-oxo-6-[4-(trifluoromethyl)phenyl]-2,3-dihydropyridazine-4-carboxamide] | 9.88 nM | 14.7 nM | > 20000 nM |
| O=C(N[C@H]1COCC[C@H]1O)c1cc(-c2ccc(OC(F)(F)F)cc2)nn(-c2cccnc2)c1=O [Example 176, 1,5-Anhydro-2,4-dideoxy-2-[({3-oxo-2-(pyridin-3-yl)-6-[4-(trifluoromethoxy)phenyl]-2,3-dihydropyridazin-4-yl}carbonyl)amino]-D-erythro-pentitol] | 66.1 nM | 38.8 nM | > 20000 nM |
| C[C@H](CO)NC(=O)c1cc(-c2ccc(C(F)(F)F)cc2)nn(-c2cccnc2)c1=O [Example 118, N-[(2R)-1-Hydroxypropan-2-yl]-3-oxo-2-(pyridin-3-yl)-6-[4-(trifluoromethyl)phenyl]-2,3-dihydropyridazine-4-carboxamide] | 45.1 nM | 57 nM | > 20000 nM |
| O=C(N[C@H]1CCC[C@@H]1O)c1cc(-c2ccc(Cl)cc2)nn(-c2cccnc2)c1=O [Example 130, 6-(4-Chlorophenyl)-N-[(1S,2S)-2-hydroxycyclopentyl]-3-oxo-2-(pyridin-3-yl)-2,3-dihydropyridazine-4-carboxamide] | 6.54 nM | 6.42 nM | > 20000 nM |
| CC(C)(O)CNC(=O)c1cc(-c2ccc(Cl)cc2)nn(-c2csc(Cl)c2)c1=O [Example 250, 6-(4-Chlorophenyl)-2-(5-chloro-3-thienyl)-N-(2-hydroxy-2-methylpropyl)-3-oxo-2,3-dihydropyridazine-4-carboxamide] | 16.9 nM | 10.5 nM | > 20000 nM |
| Cn1cc(-n2nc(-c3ccc(Cl)cc3)cc(C(=O)NCC(O)C(F)(F)F)c2=O)cn1 (single isomer, unassigned; (+)) [Example 20, (+)-6-(4-Chlorophenyl)-2-(1-methyl-1H-pyrazol-4-yl)-3-oxo-N-(3,3,3-trifluoro-2-hydroxypropyl)-2,3-dihydropyridazine-4-carboxamide] | 26.7 nM | 63.1 nM | > 20000 nM |
| O=C(N[C@H]1CCC[C@@H]1O)c1cc(-c2ccc(C(F)F)cc2)nn(-c2cccnc2)c1=O [Example 139, 6-[4-(Difluoromethyl)phenyl]-N-[(1S,2S)-2-hydroxycyclopentyl]-3-oxo-2-(pyridin-3-yl)-2,3-dihydropyridazine-4-carboxamide] | 9.2 nM | 9.16 nM | > 20000 nM |
| C[C@@H](CO)NC(=O)c1cc(-c2ccc(Cl)cc2)nn(-c2cnsc2)c1=O [Example 194, (+)-6-(4-Chlorophenyl)-N-[(2S)-1-hydroxypropan-2-yl]-3-oxo-2-(1,2-thiazol-4-yl)-2,3-dihydropyridazine-4-carboxamide] | 3.09 nM | 7.6 nM | > 20000 nM |
| Cc1ccc(-c2cc(C(=O)NCC(O)C(F)F)c(=O)n(-c3cnn(C)c3)n2)cc1 (single isomer, unassigned; enantiomer 1) [Example 14, N-(3,3-Difluoro-2-hydroxypropyl)-6-(4-methylphenyl)-2-(1-methyl-1H-pyrazol-4-yl)-3-oxo-2,3-dihydropyridazine-4-carboxamide, Enantiomer 1] | 12.1 nM | 25.5 nM | > 20000 nM |
| Cn1cc(-n2nc(-c3ccc(Cl)cc3)cc(C(=O)N[C@@H]3COC[C@@H]3O)c2=O)cn1 (single isomer, unassigned; enantiomer 2) [Example 45, 6-(4-Chlorophenyl)-N-[(cis)-4-hydroxytetrahydrofuran-3-yl]-2-(1-methyl-1H-pyrazol-4-yl)-3-oxo-2,3-dihydropyridazine-4-carboxamide, Enantiomer 2] | 41.5 nM | 83.5 nM | > 20000 nM |
| O=C(NCC(O)C(F)F)c1cc(-c2ccc(Cl)cc2)nn(-c2cccnc2)c1=O (single isomer, unassigned; (-)) [Example 87, (−)-6-(4-Chlorophenyl)-N-(3,3-difluoro-2-hydroxypropyl)-3-oxo-2-(pyridin-3-yl)-2,3-dihydropyridazine-4-carboxamide] | 29.6 nM | 21.5 nM | > 20000 nM |
| C[C@H](NC(=O)c1cc(-c2ccc(N(C)C)cc2)nn(-c2cnn(C)c2)c1=O)C(C)(C)O [Example 310, 6-[4-(Dimethylamino)phenyl]-N-[(2S)-3-hydroxy-3-methylbutan-2-yl]-2-(1-methyl-1H-pyrazol-4-yl)-3-oxo-2,3-dihydropyridazine-4-carboxamide] | 1.7 nM | 1.69 nM | > 20000 nM |
| O=C(N[C@H](CO)C(F)(F)F)c1cc(-c2ccc(OC(F)(F)F)cc2)nn(-c2cccnc2)c1=O [Example 134, 3-Oxo-2-(pyridin-3-yl)-N-[(2R)-1,1,1-trifluoro-3-hydroxypropan-2-yl]-6-[4-(trifluoromethoxy)phenyl]-2,3-dihydropyridazine-4-carboxamide] | 7.68 nM | 9.89 nM | > 20000 nM |
| O=C(NC[C@H](O)C(F)F)c1cc(-c2ccc(OC(F)(F)F)cc2)nn(-c2cccnc2)c1=O [Example 295, N-[(2S)-3,3-Difluoro-2-hydroxypropyl]-3-oxo-2-(pyridin-3-yl)-6-[4-(trifluoromethoxy)phenyl]-2,3-dihydropyridazine-4-carboxamide] | 31.9 nM | 89.9 nM | > 20000 nM |
| O=C(N[C@H]1COCC[C@H]1O)c1cc(-c2ccc(Cl)cc2)nn(-c2cccnc2)c1=O [Example 175, 1,5-Anhydro-2-({[6-(4-chlorophenyl)-3-oxo-2-(pyridin-3-yl)-2,3-dihydropyridazin-4-yl]carbonyl}amino)-2,4-dideoxy-D-erythro-pentitol] | 66.1 nM | 112 nM | > 20000 nM |
| CC(C)(O)CNC(=O)c1cc(-c2ccc(Cl)cc2)nn(-c2cccnc2)c1=O [Example 71, 6-(4-Chlorophenyl)-N-(2-hydroxy-2-methylpropyl)-3-oxo-2-(pyridin-3-yl)-2,3-dihydropyridazine-4-carboxamide] | 38 nM | 60.7 nM | > 20000 nM |
| Cn1cc(-n2nc(-c3ccc(Cl)cc3)cc(C(=O)N[C@@H](C#N)CO)c2=O)cn1 [Example 227, 6-(4-Chlorophenyl)-N-[(1S)-1-cyano-2-hydroxyethyl]-2-(1-methyl-1H-pyrazol-4-yl)-3-oxo-2,3-dihydropyridazine-4-carboxamide] | 5.99 nM | 11.6 nM | > 20000 nM |
| O=C(NCC(O)C(F)(F)F)c1cc(-c2ccc(Cl)cc2)nn(-c2cccnc2)c1=O (single isomer, unassigned; (+)) [Example 90, (+)-6-(4-Chlorophenyl)-3-oxo-2-(pyridin-3-yl)-N-(3,3,3-trifluoro-2-hydroxypropyl)-2,3-dihydropyridazine-4-carboxamide] | 21.7 nM | 40.2 nM | > 20000 nM |
